Measurements as given in US20260262643A1, “HERBICIDAL BENZOXAZINES” (FMC CORPORATION, priority 2022, published 2026).

Legend:
ducksalad = assay: Test D flooded paddy test; type: in vivo, Heteranthera limosa; details: 250 g ai/ha, applied to paddy water, visual rating after 13 to 14 days, scale 0 to 100 (0 no effect, 100 complete control)
How it was run: (§1)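 Compounds go straight into paddy water over 2-leaf plants in pots flooded to 3 cm. Greenhouse holding lasts 13 to 14 days. Injury is scored by eye against controls from 0 (none) to 100 (complete control).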

barnyardgrass [1] = assay: Test C postemergence; type: in vivo, Echinochloa crusgalli; details: 10 days, 0 to 100 scale (0 no effect, 100 complete control)
How it was run: (§2)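 Greenhouse herbicide screen, 10-day duration. Test chemicals in solvent/surfactant blend were sprayed onto soil at sowing (pre) or onto 2–10 cm seedlings at one to two leaves (post); injury scored visually against controls, 0 no effect to 100 complete control.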

oat, wild [2] = assay: Test C preemergence; type: in vivo, Avena fatua; details: preemergence, 0 to 100 scale (0 no effect, 100 complete control)
How it was run: as §2

blackgrass [3] = assay: Test C preemergence; type: in vivo, Alopecurus myosuroides; details: preemergence, 0 to 100 scale (0 no effect, 100 complete control)
How it was run: as §2

barnyardgrass [4] = assay: Test C preemergence; type: in vivo, Echinochloa crusgalli; details: preemergence, 0 to 100 scale (0 no effect, 100 complete control)
How it was run: as §2

horseweed = assay: Test C postemergence; type: in vivo, Erigeron canadensis; details: 10 days, 0 to 100 scale (0 no effect, 100 complete control)
How it was run: as §2

oat, wild [5] = assay: Test C postemergence; type: in vivo, Avena fatua; details: 10 days, 0 to 100 scale (0 no effect, 100 complete control)
How it was run: as §2

pigweed, palmer [6] = assay: Test C postemergence; type: in vivo, Amaranthus palmeri; details: 10 days, 0 to 100 scale (0 no effect, 100 complete control)
How it was run: as §2

blackgrass [7] = assay: Test C postemergence; type: in vivo, Alopecurus myosuroides; details: 10 days, 0 to 100 scale (0 no effect, 100 complete control)
How it was run: as §2

kochia [8] = assay: Test C preemergence; type: in vivo, Bassia scoparia; details: preemergence, 0 to 100 scale (0 no effect, 100 complete control)
How it was run: as §2

wheat [9] = assay: Test C postemergence; type: in vivo, Triticum aestivum; details: 10 days, 0 to 100 scale (0 no effect, 100 complete control)
How it was run: as §2

galium = assay: Test C postemergence; type: in vivo, Galium aparine; details: 10 days, 0 to 100 scale (0 no effect, 100 complete control)
How it was run: as §2

pigweed, palmer [10] = assay: Test C preemergence; type: in vivo, Amaranthus palmeri; details: preemergence, 0 to 100 scale (0 no effect, 100 complete control)
How it was run: as §2

corn [11] = assay: Test C preemergence; type: in vivo, Zea mays; details: preemergence, 0 to 100 scale (0 no effect, 100 complete control)
How it was run: as §2

barnyardgrass [12] = assay: Test D flooded paddy test; type: in vivo, Echinochloa crus-galli; details: 250 g ai/ha, applied to paddy water, visual rating after 13 to 14 days, scale 0 to 100 (0 no effect, 100 complete control)
How it was run: as §1

corn [13] = assay: Test C postemergence; type: in vivo, Zea mays; details: 10 days, 0 to 100 scale (0 no effect, 100 complete control)
How it was run: as §2

wheat [14] = assay: Test C preemergence; type: in vivo, Triticum aestivum; details: preemergence, 0 to 100 scale (0 no effect, 100 complete control)
How it was run: as §2

soybean [15] = assay: Test C postemergence; type: in vivo, Glycine max; details: 10 days, 0 to 100 scale (0 no effect, 100 complete control)
How it was run: as §2

ryegrass, Italian [16] = assay: Test C preemergence; type: in vivo, Lolium multiflorum; details: preemergence, 0 to 100 scale (0 no effect, 100 complete control)
How it was run: as §2

ragweed = assay: Test C postemergence; type: in vivo, Ambrosia artemisiifolia; details: 10 days, 0 to 100 scale (0 no effect, 100 complete control)
How it was run: as §2

sedge, umbrella = assay: Test D flooded paddy test; type: in vivo, Cyperus difformis; details: 250 g ai/ha, applied to paddy water, visual rating after 13 to 14 days, scale 0 to 100 (0 no effect, 100 complete control)
How it was run: as §1

ryegrass, Italian [17] = assay: Test C postemergence; type: in vivo, Lolium multiflorum; details: 10 days, 0 to 100 scale (0 no effect, 100 complete control)
How it was run: as §2

green foxtail [18] = assay: Test C preemergence; type: in vivo, Setaria viridis; details: preemergence, 0 to 100 scale (0 no effect, 100 complete control)
How it was run: as §2

rice = assay: Test D flooded paddy test; type: in vivo, Oryza sativa; details: 250 g ai/ha, applied to paddy water, visual rating after 13 to 14 days, scale 0 to 100 (0 no effect, 100 complete control)
How it was run: as §1

kochia [19] = assay: Test C postemergence; type: in vivo, Bassia scoparia; details: 10 days, 0 to 100 scale (0 no effect, 100 complete control)
How it was run: as §2

green foxtail [20] = assay: Test C postemergence; type: in vivo, Setaria viridis; details: 10 days, 0 to 100 scale (0 no effect, 100 complete control)
How it was run: as §2

soybean [21] = assay: Test C preemergence; type: in vivo, Glycine max; details: preemergence, 0 to 100 scale (0 no effect, 100 complete control)
How it was run: as §2

SMILES: CCOc1ncn(-c2cccc(C(=O)N3C[C@H](C)Oc4c(Cl)cccc43)c2)n1 [Compound 311]
- Plant response rating, Ducksalad (Flood) (ducksalad): 0
- Plant response rating, Barnyardgrass (barnyardgrass [1]; 500 g ai/ha, postemergence): 40
- Plant response rating, Barnyardgrass (barnyardgrass [1]; Postemergence, 125 g ai/ha): 10
- Oat, Wild plant response rating (oat, wild [2]; 500 g ai/ha): 30
- Oat, Wild plant response rating (oat, wild [2]; Test C, 125 g ai/ha): 0
- Blackgrass plant response rating (blackgrass [3]; 500 g ai/ha): 80
- Blackgrass plant response rating (blackgrass [3]; Test C, 125 g ai/ha): 10
- Barnyardgrass plant response rating (barnyardgrass [4]; 500 g ai/ha): 60
- Barnyardgrass plant response rating (barnyardgrass [4]; Test C, 125 g ai/ha): 0
- Plant response rating, Horseweed (horseweed; 500 g ai/ha, postemergence): 50
- Plant response rating, Horseweed (horseweed; Postemergence, 125 g ai/ha): 50
- Plant response rating, Oat, Wild (oat, wild [5]; 500 g ai/ha, postemergence): 10
- Plant response rating, Oat, Wild (oat, wild [5]; Postemergence, 125 g ai/ha): 0
- Plant response rating, Pigweed, Palmer (pigweed, palmer [6]; 500 g ai/ha, postemergence): 60
- Plant response rating, Pigweed, Palmer (pigweed, palmer [6]; Postemergence, 125 g ai/ha): 20
- Plant response rating, Blackgrass (blackgrass [7]; 500 g ai/ha, postemergence): 90
- Plant response rating, Blackgrass (blackgrass [7]; Postemergence, 125 g ai/ha): 0
- Kochia plant response rating (kochia [8]; 500 g ai/ha): 80
- Kochia plant response rating (kochia [8]; Test C, 125 g ai/ha): 20
- Plant response rating, Wheat (wheat [9]; 500 g ai/ha, postemergence): 10
- Plant response rating, Wheat (wheat [9]; Postemergence, 125 g ai/ha): 10
- Plant response rating, Galium (galium; 500 g ai/ha, postemergence): 90
- Plant response rating, Galium (galium; Postemergence, 125 g ai/ha): 90
- Pigweed, Palmer plant response rating (pigweed, palmer [10]; 500 g ai/ha): 100
- Pigweed, Palmer plant response rating (pigweed, palmer [10]; Test C, 125 g ai/ha): 50
- Corn plant response rating (corn [11]; 500 g ai/ha): 0
- Corn plant response rating (corn [11]; Test C, 125 g ai/ha): 0
- Plant response rating, Barnyardgrass (Flood) (barnyardgrass [12]): 0
- Plant response rating, Corn (corn [13]; 500 g ai/ha, postemergence): 40
- Plant response rating, Corn (corn [13]; Postemergence, 125 g ai/ha): 10
- Wheat plant response rating (wheat [14]; 500 g ai/ha): 20
- Wheat plant response rating (wheat [14]; Test C, 125 g ai/ha): 0
- Plant response rating, Soybean (soybean [15]; 500 g ai/ha, postemergence): 100
- Plant response rating, Soybean (soybean [15]; Postemergence, 125 g ai/ha): 70
- Ryegrass, Italian plant response rating (ryegrass, Italian [16]; 500 g ai/ha): 80
- Ryegrass, Italian plant response rating (ryegrass, Italian [16]; Test C, 125 g ai/ha): 30
- Plant response rating, Ragweed (ragweed; 500 g ai/ha, postemergence): 40
- Plant response rating, Ragweed (ragweed; Postemergence, 125 g ai/ha): 0
- Plant response rating, Sedge, Umbrella (Flood) (sedge, umbrella): 0
- Plant response rating, Ryegrass, Italian (ryegrass, Italian [17]; 500 g ai/ha, postemergence): 30
- Plant response rating, Ryegrass, Italian (ryegrass, Italian [17]; Postemergence, 125 g ai/ha): 10
- Foxtail, Green plant response rating (green foxtail [18]; 500 g ai/ha): 100
- Foxtail, Green plant response rating (green foxtail [18]; Test C, 125 g ai/ha): 90
- Plant response rating, Rice (Flood) (rice): 0
- Plant response rating, Kochia (kochia [19]; 500 g ai/ha, postemergence): 70
- Plant response rating, Kochia (kochia [19]; Postemergence, 125 g ai/ha): 30
- Plant response rating, Foxtail, Green (green foxtail [20]; 500 g ai/ha, postemergence): 40
- Plant response rating, Foxtail, Green (green foxtail [20]; Postemergence, 125 g ai/ha): 30
- Soybean plant response rating (soybean [21]; 500 g ai/ha): 10
- Soybean plant response rating (soybean [21]; Test C, 125 g ai/ha): 0

SMILES: Cc1cccc2c1OC(C(F)(F)F)CN2C(=O)c1cccc(-n2cnc(C(C)C)n2)c1 (single isomer, unassigned) [Compound 302]
- Plant response rating, Ducksalad (Flood) (ducksalad): 0
- Plant response rating, Barnyardgrass (barnyardgrass [1]; 500 g ai/ha, postemergence): 10
- Plant response rating, Barnyardgrass (barnyardgrass [1]; Postemergence, 125 g ai/ha): 10
- Oat, Wild plant response rating (oat, wild [2]; 500 g ai/ha): 80
- Oat, Wild plant response rating (oat, wild [2]; Test C, 125 g ai/ha): 0
- Blackgrass plant response rating (blackgrass [3]; 500 g ai/ha): 60
- Blackgrass plant response rating (blackgrass [3]; Test C, 125 g ai/ha): 30
- Barnyardgrass plant response rating (barnyardgrass [4]; 500 g ai/ha): 50
- Barnyardgrass plant response rating (barnyardgrass [4]; Test C, 125 g ai/ha): 0
- Plant response rating, Horseweed (horseweed; 500 g ai/ha, postemergence): 50
- Plant response rating, Horseweed (horseweed; Postemergence, 125 g ai/ha): 60
- Plant response rating, Oat, Wild (oat, wild [5]; 500 g ai/ha, postemergence): 10
- Plant response rating, Oat, Wild (oat, wild [5]; Postemergence, 125 g ai/ha): 0
- Plant response rating, Pigweed, Palmer (pigweed, palmer [6]; 500 g ai/ha, postemergence): 20
- Plant response rating, Pigweed, Palmer (pigweed, palmer [6]; Postemergence, 125 g ai/ha): 10
- Plant response rating, Blackgrass (blackgrass [7]; 500 g ai/ha, postemergence): 30
- Plant response rating, Blackgrass (blackgrass [7]; Postemergence, 125 g ai/ha): 0
- Kochia plant response rating (kochia [8]; 500 g ai/ha): 80
- Kochia plant response rating (kochia [8]; Test C, 125 g ai/ha): 0
- Plant response rating, Wheat (wheat [9]; 500 g ai/ha, postemergence): 10
- Plant response rating, Wheat (wheat [9]; Postemergence, 125 g ai/ha): 10
- Plant response rating, Galium (galium; 500 g ai/ha, postemergence): 90
- Pigweed, Palmer plant response rating (pigweed, palmer [10]; 500 g ai/ha): 80
- Pigweed, Palmer plant response rating (pigweed, palmer [10]; Test C, 125 g ai/ha): 70
- Corn plant response rating (corn [11]; 500 g ai/ha): 0
- Plant response rating, Barnyardgrass (Flood) (barnyardgrass [12]): 0
- Plant response rating, Corn (corn [13]; 500 g ai/ha, postemergence): 10
- Plant response rating, Corn (corn [13]; Postemergence, 125 g ai/ha): 10
- Wheat plant response rating (wheat [14]; 500 g ai/ha): 40
- Wheat plant response rating (wheat [14]; Test C, 125 g ai/ha): 20
- Plant response rating, Soybean (soybean [15]; 500 g ai/ha, postemergence): 90
- Plant response rating, Soybean (soybean [15]; Postemergence, 125 g ai/ha): 80
- Ryegrass, Italian plant response rating (ryegrass, Italian [16]; 500 g ai/ha): 100
- Ryegrass, Italian plant response rating (ryegrass, Italian [16]; Test C, 125 g ai/ha): 80
- Plant response rating, Ragweed (ragweed; 500 g ai/ha, postemergence): 20
- Plant response rating, Ragweed (ragweed; Postemergence, 125 g ai/ha): 20
- Plant response rating, Sedge, Umbrella (Flood) (sedge, umbrella): 0
- Plant response rating, Ryegrass, Italian (ryegrass, Italian [17]; 500 g ai/ha, postemergence): 50
- Plant response rating, Ryegrass, Italian (ryegrass, Italian [17]; Postemergence, 125 g ai/ha): 0
- Foxtail, Green plant response rating (green foxtail [18]; 500 g ai/ha): 80
- Foxtail, Green plant response rating (green foxtail [18]; Test C, 125 g ai/ha): 20
- Plant response rating, Rice (Flood) (rice): 0
- Plant response rating, Kochia (kochia [19]; 500 g ai/ha, postemergence): 70
- Plant response rating, Kochia (kochia [19]; Postemergence, 125 g ai/ha): 20
- Plant response rating, Foxtail, Green (green foxtail [20]; 500 g ai/ha, postemergence): 10
- Plant response rating, Foxtail, Green (green foxtail [20]; Postemergence, 125 g ai/ha): 0
- Soybean plant response rating (soybean [21]; 500 g ai/ha): 20
- Soybean plant response rating (soybean [21]; Test C, 125 g ai/ha): 10
